# Reference: US8114583B2, “Switch-region: target and method for inhibition of bacterial RNA polymerase” (priority 2005, dated 2012)
# “And” between values parts separate entries of the source, which are not always exact repeats. Equal values may be shown once. Read-outs that look alike come from different tables or passages of the source.
# Columns and labels:
# [1] = test system: Escherichia coli with substitutions in RNAP β′ subunit (rpoC) or β subunit (rpoB); assay: MIC ratio (MIC mutant/MIC wild-type) of resistant rpoC/rpoB mutants; type: cell-based
# Description: To identify determinants for function of Myx, Applicant has performed random mutagenesis of genes encoding Escherichia coli RNAP β′ subunit (rpoC) and β subunit (rpoB), and has isolated and sequenced five independent Myx-resistant mutants (methods as described in Mukhopadhyay, et al. (2004) Mol. Cell. 14, 739-751).
# To further define determinants for function of Myx, Applicant has performed saturation mutagenesis of genes encoding Escherichia coli RNAP β′ subunit (rpoC) and β subunit (rpoB), and has isolated and sequenced more than 100 independent Myx-resistant mutants (methods as described in Mukhopadhyay, et al. (2004) Mol. Cell. 14, 739-751; Tuske, et al. […] Cell 122, 541-552). Saturation mutagenesis was performed using a set of “doped” oligodeoxyribonucleotide primers targeting all codons for residues located within 30 Å of β′ residue 345 and β residues 1275 and 1292 in the three-dimensional structure of bacterial RNAP (primer sequences in Table 2). […]
# [2] = test system: Escherichia coli DH21tolC; assay: bacteriocidal activity; type: cell-based; conditions: unpublished data
# Escherichia coli RNAP = Escherichia coli RNAP (Escherichia coli, UniProt P0A8T7+P0A8V2); type: biochemical
# Description: (A) DNA construct SEQ ID NO:133. (B) Data.
# (A) DNA construct SEQ ID NO:134. (B) Data.
# Applicant has performed transcription and DNA-binding experiments in order to define the basic mechanism of transcription inhibition by Myx (methods as in Mukhopadhyay, et al. (2004) Mol. Cell. 14, 739-751).
# Applicant has performed DNA binding experiments with a series of subfragments of promoter DNA in order to map the interaction of RNAP with promoter DNA inhibited by Myx (methods as in Mukhopadhyay, et al. (2004) Mol. Cell. 14, 739-751). […] This DNA segment corresponds, precisely, to the DNA segment proposed to bind within the RNAP active-center cleft, and to be affected by clamp opening and closing, in structural models of transcription initiation complexes (see Ebright (2000) J. Mol. Biol. 304, 687-698; Murakami, et al. (2003) Curr. Opin. Stuct. Biol. 12, 89-97; Borukhov & Nudler (2003) Curr. Opin. Microbiol. 6, 93-100; Murakami, et al. (2002) Science 296, 1285-1290; Naryshkin, et al. (2000) Cell 101, 601-611; Mekler, et al. (2002) Cell 108, 599-614).
# Bacillus subtilis = conditions: cited from earlier work
# B. megaterium = conditions: cited from earlier work
# Micrococcus luteus = conditions: cited from earlier work
# [3] = test system: Corynebacterium mediolanum; conditions: cited from earlier work
# [4] = test system: Escherichia coli DH21tolC; conditions: cited from earlier work
# bacterial RNAP = bacterial RNAP (Escherichia coli, UniProt P0A8T7+P0A8V2); conditions: read-out: Ki, inhibition of bacterial RNAP; cited from earlier work
# eukaryotic RNAP II = conditions: cited from earlier work
# [5] = target: T. thermophilus RNAP holoenzyme (Thermus thermophilus, UniProt Q8RQE8+Q8RQE9); assay: inhibition of T. thermophilus RNAP holoenzyme; type: biochemical; conditions: unpublished data; read-out: K, inhibition of T. thermophilus RNAP holoenzyme
# [6] = target: wild-type Escherichia coli RNAP and [Arg345]β′-RNAP (Escherichia coli, UniProt P0A8T7+P0A8V2, K345R); conditions: [Arg345]β′-RNAP versus wild-type RNAP; FIG. 7
# Enterococcus faecium = conditions: cited from earlier work
# Enterobacter cloacae = conditions: cited from earlier work
# Mycobacterium smegmatis = conditions: cited from earlier work
# Pseudomonas aeruginosa = conditions: cited from earlier work
# mice = conditions: at concentrations up to 100 mg/kg; cited from earlier work
# Staphylococcus aureus = conditions: cited from earlier work
compound,measurement,setting,value
"C/C=C/C/C=C(\C)C(O)CC/C(C)=C/C=C(\C)C(=O)c1c(O)cc([C@H](C)CC/C=C/NC(=O)OC)oc1=O (some centres unmarked) [Cor, corallopyronin]","MIC ratio (MIC, mutant/MIC, wild-type)",[1]; rpoB 1255 Thr→Ile,4
same,"MIC ratio (MIC, mutant/MIC, wild-type)",[1]; rpoB 1275 Val→Met,>8
same,"MIC ratio (MIC, mutant/MIC, wild-type)",[1]; rpoB 1275 Val→Phe,>8
same,"MIC ratio (MIC, mutant/MIC, wild-type)",[1]; rpoB 1278 Leu→Val,4
same,"MIC ratio (MIC, mutant/MIC, wild-type)",[1]; rpoB 1279 Glu→Gly,4
same,"MIC ratio (MIC, mutant/MIC, wild-type)",[1]; rpoB 1279 Glu→Lys,8
same,"MIC ratio (MIC, mutant/MIC, wild-type)",[1]; rpoB 1283 Ala→Val,4
same,"MIC ratio (MIC, mutant/MIC, wild-type)",[1]; rpoB 1285 Tyr→Asp,1
same,"MIC ratio (MIC, mutant/MIC, wild-type)",[1]; rpoB 1291 Leu→Phe,1
same,"MIC ratio (MIC, mutant/MIC, wild-type)",[1]; rpoB 1298 Val→Leu,2
same,"MIC ratio (MIC, mutant/MIC, wild-type)",[1]; rpoB 1315 Met→Leu,2
same,"MIC ratio (MIC, mutant/MIC, wild-type)",[1]; rpoB 1317 Pro→Leu,2
same,"MIC ratio (MIC, mutant/MIC, wild-type)",[1]; rpoB 1320 Pro→Ala,4
same,"MIC ratio (MIC, mutant/MIC, wild-type)",[1]; rpoB 1322 Ser→Pro,4
same,"MIC ratio (MIC, mutant/MIC, wild-type)",[1]; rpoB 1322 Ser→Thr,4
same,"MIC ratio (MIC, mutant/MIC, wild-type)",[1]; rpoB 1322 Ser→Tyr,4
same,"MIC ratio (MIC, mutant/MIC, wild-type)",[1]; rpoB 1322 Ser→Val,8
same,"MIC ratio (MIC, mutant/MIC, wild-type)",[1]; rpoB 1325 Val→Leu,4
same,"MIC ratio (MIC, mutant/MIC, wild-type)",[1]; rpoB 1326 Leu→Trp,>8
same,"MIC ratio (MIC, mutant/MIC, wild-type)",[1]; rpoC 345 Lys→Arg,>8
same,"MIC ratio (MIC, mutant/MIC, wild-type)",[1]; rpoC 345 Lys→Asn,8
same,"MIC ratio (MIC, mutant/MIC, wild-type)",[1]; rpoC 345 Lys→Thr,8
same,"MIC ratio (MIC, mutant/MIC, wild-type)",[1]; rpoC 1346 Gly→Asp,4
same,"MIC ratio (MIC, mutant/MIC, wild-type)",[1]; rpoC 1351 Val→Phe,>8
same,"MIC ratio (MIC, mutant/MIC, wild-type)",[1]; rpoC 1352 Ile→Asn,4
same,"MIC ratio (MIC, mutant/MIC, wild-type)",[1]; rpoC 1352 Ile→Ser,4
same,"MIC ratio (MIC, mutant/MIC, wild-type)",[1]; rpoC 1354 Gly→Cys,2
same,bacteriocidal or not,[2],bacteriocidal
same,"effects on transcription, promoter binding, and promoter-subfragment binding",Escherichia coli RNAP,same mechanism as Myx
same,MIC,Bacillus subtilis,≤ 10 µg/mL
same,MIC,B. megaterium,≤ 10 µg/mL
same,MIC,Micrococcus luteus,≤ 10 µg/mL
same,MIC,[3],≤ 10 µg/mL
same,MIC,[4],≤ 10 µg/mL
same,Ki,bacterial RNAP,4000 nM
same,inhibition of eukaryotic RNAP II,eukaryotic RNAP II,does not inhibit
"CCC/C(C)=C/C=C(\C)C(=O)c1c(O)cc([C@H](C)CC/C=C/NC(=O)OC)oc1=O [Myx, myxopyronin]","MIC ratio (MIC, mutant/MIC, wild-type)",[1]; rpoB 1255 Thr→Ile,2
same,"MIC ratio (MIC, mutant/MIC, wild-type)",[1]; rpoB 1275 Val→Met,>32
same,"MIC ratio (MIC, mutant/MIC, wild-type)",[1]; rpoB 1275 Val→Phe,>32
same,"MIC ratio (MIC, mutant/MIC, wild-type)",[1]; rpoB 1278 Leu→Val,2
same,"MIC ratio (MIC, mutant/MIC, wild-type)",[1]; rpoB 1279 Glu→Gly,32
same,"MIC ratio (MIC, mutant/MIC, wild-type)",[1]; rpoB 1279 Glu→Lys,>32
same,"MIC ratio (MIC, mutant/MIC, wild-type)",[1]; rpoB 1283 Ala→Val,2
same,"MIC ratio (MIC, mutant/MIC, wild-type)",[1]; rpoB 1285 Tyr→Asp,2
same,"MIC ratio (MIC, mutant/MIC, wild-type)",[1]; rpoB 1291 Leu→Phe,2
same,"MIC ratio (MIC, mutant/MIC, wild-type)",[1]; rpoB 1298 Val→Leu,4 and 2
same,"MIC ratio (MIC, mutant/MIC, wild-type)",[1]; rpoB 1315 Met→Leu,2
same,"MIC ratio (MIC, mutant/MIC, wild-type)",[1]; rpoB 1317 Pro→Leu,2
same,"MIC ratio (MIC, mutant/MIC, wild-type)",[1]; rpoB 1320 Pro→Ala,2
same,"MIC ratio (MIC, mutant/MIC, wild-type)",[1]; rpoB 1322 Ser→Pro,32
same,"MIC ratio (MIC, mutant/MIC, wild-type)",[1]; rpoB 1322 Ser→Thr,2
same,"MIC ratio (MIC, mutant/MIC, wild-type)",[1]; rpoB 1322 Ser→Tyr,2
same,"MIC ratio (MIC, mutant/MIC, wild-type)",[1]; rpoB 1322 Ser→Val,16
same,"MIC ratio (MIC, mutant/MIC, wild-type)",[1]; rpoB 1325 Val→Leu,2
same,"MIC ratio (MIC, mutant/MIC, wild-type)",[1]; rpoB 1326 Leu→Trp,1
same,"MIC ratio (MIC, mutant/MIC, wild-type)",[1]; rpoC 345 Lys→Arg,>32
same,"MIC ratio (MIC, mutant/MIC, wild-type)",[1]; rpoC 345 Lys→Asn,32
same,"MIC ratio (MIC, mutant/MIC, wild-type)",[1]; rpoC 345 Lys→Thr,32
same,"MIC ratio (MIC, mutant/MIC, wild-type)",[1]; rpoC 1346 Gly→Asp,1
same,"MIC ratio (MIC, mutant/MIC, wild-type)",[1]; rpoC 1351 Val→Phe,>32
same,"MIC ratio (MIC, mutant/MIC, wild-type)",[1]; rpoC 1352 Ile→Asn,2
same,"MIC ratio (MIC, mutant/MIC, wild-type)",[1]; rpoC 1352 Ile→Ser,2
same,"MIC ratio (MIC, mutant/MIC, wild-type)",[1]; rpoC 1354 Gly→Cys,2
same,bacteriocidal or not,[2],bacteriocidal
same,Ki,[5],20000 nM
same,interaction of RNAP with promoter DNA,Escherichia coli RNAP,preventing stable interaction
same,interaction of RNAP with promoter DNA segment comprising positions −40 to −12,Escherichia coli RNAP,does not inhibit
same,interaction of RNAP with segment of promoter DNA comprising positions −11 to +15,Escherichia coli RNAP,inhibits
same,effect of substitution within the switch-region sequence on binding of Myx to RNAP,[6],reduces binding
same,MIC,Bacillus subtilis,≤ 10 µg/mL
same,MIC,B. megaterium,≤ 10 µg/mL
same,MIC,Micrococcus luteus,≤ 10 µg/mL
same,MIC,Enterococcus faecium,≤ 10 µg/mL
same,MIC,Enterobacter cloacae,≤ 10 µg/mL
same,MIC,[3],≤ 10 µg/mL
same,MIC,Mycobacterium smegmatis,≤ 10 µg/mL
same,MIC,Pseudomonas aeruginosa,≤ 10 µg/mL
same,Ki,bacterial RNAP,1000 nM
same,inhibition of eukaryotic RNAP II,eukaryotic RNAP II,does not inhibit
same,acute toxicity in mice,mice,no acute toxicity
"C/C(=C\Cc1ccccc1)CCC(=O)C[C@H]1C[C@H](O)C/C(C)=C/C/C=C/C/C(CC(=O)O)=C\C(=O)O1 [Rip, ripostatin]","MIC ratio (MIC, mutant/MIC, wild-type)",[1]; rpoB 1255 Thr→Ile,4
same,"MIC ratio (MIC, mutant/MIC, wild-type)",[1]; rpoB 1275 Val→Met,8
same,"MIC ratio (MIC, mutant/MIC, wild-type)",[1]; rpoB 1275 Val→Phe,>16
same,"MIC ratio (MIC, mutant/MIC, wild-type)",[1]; rpoB 1278 Leu→Val,>16
same,"MIC ratio (MIC, mutant/MIC, wild-type)",[1]; rpoB 1279 Glu→Gly,>16
same,"MIC ratio (MIC, mutant/MIC, wild-type)",[1]; rpoB 1279 Glu→Lys,4
same,"MIC ratio (MIC, mutant/MIC, wild-type)",[1]; rpoB 1283 Ala→Val,4
same,"MIC ratio (MIC, mutant/MIC, wild-type)",[1]; rpoB 1285 Tyr→Asp,4
same,"MIC ratio (MIC, mutant/MIC, wild-type)",[1]; rpoB 1291 Leu→Phe,4
same,"MIC ratio (MIC, mutant/MIC, wild-type)",[1]; rpoB 1298 Val→Leu,4
same,"MIC ratio (MIC, mutant/MIC, wild-type)",[1]; rpoB 1315 Met→Leu,4
same,"MIC ratio (MIC, mutant/MIC, wild-type)",[1]; rpoB 1317 Pro→Leu,2
same,"MIC ratio (MIC, mutant/MIC, wild-type)",[1]; rpoB 1320 Pro→Ala,4
same,"MIC ratio (MIC, mutant/MIC, wild-type)",[1]; rpoB 1322 Ser→Pro,>16
same,"MIC ratio (MIC, mutant/MIC, wild-type)",[1]; rpoB 1322 Ser→Thr,4
same,"MIC ratio (MIC, mutant/MIC, wild-type)",[1]; rpoB 1322 Ser→Tyr,2
same,"MIC ratio (MIC, mutant/MIC, wild-type)",[1]; rpoB 1322 Ser→Val,>16
same,"MIC ratio (MIC, mutant/MIC, wild-type)",[1]; rpoB 1325 Val→Leu,4
same,"MIC ratio (MIC, mutant/MIC, wild-type)",[1]; rpoB 1326 Leu→Trp,>16
same,"MIC ratio (MIC, mutant/MIC, wild-type)",[1]; rpoC 345 Lys→Arg,>16
same,"MIC ratio (MIC, mutant/MIC, wild-type)",[1]; rpoC 345 Lys→Asn,8
same,"MIC ratio (MIC, mutant/MIC, wild-type)",[1]; rpoC 345 Lys→Thr,>16
same,"MIC ratio (MIC, mutant/MIC, wild-type)",[1]; rpoC 1346 Gly→Asp,4
same,"MIC ratio (MIC, mutant/MIC, wild-type)",[1]; rpoC 1351 Val→Phe,>16
same,"MIC ratio (MIC, mutant/MIC, wild-type)",[1]; rpoC 1352 Ile→Asn,>16
same,"MIC ratio (MIC, mutant/MIC, wild-type)",[1]; rpoC 1352 Ile→Ser,>16
same,"MIC ratio (MIC, mutant/MIC, wild-type)",[1]; rpoC 1354 Gly→Cys,4
same,bacteriocidal or not,[2],bacteriocidal
same,"effects on transcription, promoter binding, and promoter-subfragment binding",Escherichia coli RNAP; results not shown,same mechanism as Myx
same,MIC,Staphylococcus aureus,≤ 1 µg/mL
same,MIC,[4],≤ 1 µg/mL
same,Ki,bacterial RNAP,300 nM
same,inhibition of eukaryotic RNAP II,eukaryotic RNAP II,does not inhibit
